Data on 26 compounds can be found in US10894784B2, “Heteroarylbenzimidazole compounds” (BAYER PHARMA AKTIENGESELLSCHAFT, priority 2015, dated 2021).

TBK1, sequence (Q9UHD2 whole entry): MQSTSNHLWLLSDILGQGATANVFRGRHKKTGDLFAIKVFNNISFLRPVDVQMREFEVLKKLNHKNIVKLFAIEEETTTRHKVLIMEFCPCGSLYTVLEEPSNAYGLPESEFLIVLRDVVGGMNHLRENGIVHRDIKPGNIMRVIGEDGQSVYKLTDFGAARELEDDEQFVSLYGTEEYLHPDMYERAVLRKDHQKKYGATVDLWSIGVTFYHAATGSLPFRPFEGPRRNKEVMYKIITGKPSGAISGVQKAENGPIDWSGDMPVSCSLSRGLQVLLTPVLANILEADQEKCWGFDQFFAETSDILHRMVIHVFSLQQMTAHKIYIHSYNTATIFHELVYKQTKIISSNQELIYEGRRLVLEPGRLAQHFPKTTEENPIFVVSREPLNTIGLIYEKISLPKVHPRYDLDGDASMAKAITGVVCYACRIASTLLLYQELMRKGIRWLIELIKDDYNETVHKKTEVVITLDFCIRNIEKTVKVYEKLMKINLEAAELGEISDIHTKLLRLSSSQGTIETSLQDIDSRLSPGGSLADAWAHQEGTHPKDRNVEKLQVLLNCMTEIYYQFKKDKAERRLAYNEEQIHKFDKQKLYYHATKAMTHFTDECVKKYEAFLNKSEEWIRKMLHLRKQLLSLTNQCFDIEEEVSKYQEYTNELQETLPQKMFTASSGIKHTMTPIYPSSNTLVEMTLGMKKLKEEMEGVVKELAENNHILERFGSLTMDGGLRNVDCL

This assay concerns the target TBK1 (Homo sapiens (Human), UniProt Q9UHD2). Briefly: TBK1 low ATP kinase assay (in vitro assay 1). In kind it is biochemical. The settings on record: in vitro assay 1, read-out: TBK1 low ATP kinase assay IC50.
By IC50 is commonly meant the point on the concentration scale where inhibition reaches its midpoint. As for `CN(C)c1cnc(-c2ccc3nc(Nc4cc(CN5CCN(C(=O)CC(F)(F)F)CC5)ccn4)[nH]c3c2)cn1` [Example 144.02, 1-(4-{[2-({6-[5-(dimethylamino)pyrazin-2-yl]-1H-benzimidazol-2-yl}amino)pyridin-4-yl]methyl}piperazin-1-yl)-3,3,3-trifluoropropan-1-one], the half-inhibitory concentration (IC50) was found to be 0.35 µM.

On to `Cc1nccc(-c2ccc3nc(Nc4cc(C(C)N5CCN(C(=O)CC(F)(F)F)CC5)ccn4)[nH]c3c2)n1` (single isomer, unassigned) [Example 24.05.01.A, 3,3,3-trifluoro-1-{4-[(1R or 1S)-1-(2-{[6-(2-methylpyrimidin-4-yl)-1H-benzimidazol-2-yl]amino}pyridin-4-yl)ethyl]piperazin-1-yl}propan-1-one], for which the IC50 was determined as 0.0454 µM.

Take “3,3,3-trifluoro-1-{4-[(1R or 1S)-1-{2-[(6-{1-[(1-methylcyclopropyl)methyl]-1H-pyrazol-4-yl}-1H-benzimidazol-2-yl)amino]pyridin-4-yl}ethyl]piperazin-1-yl}propan-1-one [Example 68.02]”: the IC50 was 0.0015 µM.

With `Cc1nccc(-c2ccc3nc(Nc4cc(C(C)N5CCN(C(=O)C6CCC6)CC5)ccn4)[nH]c3c2)n1` (single isomer, unassigned) [Example 24.05.02.A, cyclobutyl{4-[(1R or 1S)-1-(2-{[6-(2-methylpyrimidin-4-yl)-1H-benzimidazol-2-yl]amino}pyridin-4-yl)ethyl]piperazin-1-yl}methanone], the half-inhibitory concentration (IC50) worked out at 0.011 µM.

For `CC(c1ccnc(Nc2nc3ccc(-c4cc(N5CC(C(F)(F)F)C5)ncn4)cc3[nH]2)c1)N1CCN(C(=O)C2(C(F)(F)F)CC2)CC1` (single isomer, unassigned) [Example 164.04, {4-[(1R or 1S)-1-{2-[(6-{6-[3-(trifluoromethyl)azetidin-1-yl]pyrimidin-4-yl}-1H-benzimidazol-2-yl)amino]pyridin-4-yl}ethyl]piperazin-1-yl}[1-(trifluoromethyl)cyclopropyl]methanone], the 50% inhibitory concentration (IC50) worked out at 0.000832 µM.

With `Cc1cnn(C)c1-c1ccc2nc(Nc3cc(C(C)N4CCN(C(=O)CC(F)(F)F)CC4)ccn3)[nH]c2c1` (single isomer, unassigned) [Example 73.01, 1-{4-[(1R or 1S)-1-(2-{[6-(1,4-dimethyl-1H-pyrazol-5-yl)-1H-benzimidazol-2-yl]amino}pyridin-4-yl)ethyl]piperazin-1-yl}-3,3,3-trifluoropropan-1-one], the IC50 was determined as 0.067 µM.

For `CN(CC1CC1)c1cc(-c2ccc3nc(Nc4cc(CN5CCN(C(=O)CC(F)(F)F)CC5)ccn4)[nH]c3c2)ncn1` [Example 141.02, 1-[4-({2-[(6-{6-[(cyclopropylmethyl)(methyl)amino]pyrimidin-4-yl}-1H-benzimidazol-2-yl)amino]pyridin-4-yl}methyl)piperazin-1-yl]-3,3,3-trifluoropropan-1-one], the IC50 was 0.019 µM.

Consider `COc1ccc(-c2ccc3nc(Nc4cc(CN5CCN(C(=O)C6CC6)CC5)ccn4)[nH]c3c2)nn1` [Example 47.01, cyclopropyl{4-[(2-{[6-(6-methoxypyridazin-3-yl)-1H-benzimidazol-2-yl]amino}pyridin-4-yl)methyl]piperazin-1-yl}methanone], for which the IC50 stood at 0.394 µM.

`COc1ccc(-c2ccc3nc(Nc4cc(CN5CCN(C(=O)OC(C)(C)C)CC5)ccn4)[nH]c3c2)cn1` [Example 13.01, tert-butyl 4-[(2-{[6-(6-methoxypyridin-3-yl)-1H-benzimidazol-2-yl]amino}pyridin-4-yl)methyl]piperazine-1-carboxylate]: the IC50 stood at 1.25 µM.

For the compound `Cc1noc(-c2ccc3nc(Nc4cc(CN5CCN(C(=O)CC(F)(F)F)CC5(C)C)ccn4)[nH]c3c2)n1` [Example 16.04.02, 1-{3,3-dimethyl-4-[(2-{[6-(3-methyl-1,2,4-oxadiazol-5-yl)-1H-benzimidazol-2-yl]amino}pyridin-4-yl)methyl]piperazin-1-yl}-3,3,3-trifluoropropan-1-one], the IC50 worked out at 0.496 µM.

Consider `CC(C)N(C)c1cc(-c2ccc3nc(Nc4cc(CN5CCN(C(=O)C6CC6)CC5)ccn4)[nH]c3c2)ncn1` [Example 153.03, cyclopropyl[4-({2-[(6-{6-[methyl(propan-2-yl)amino]pyrimidin-4-yl}-1H-benzimidazol-2-yl)amino]pyridin-4-yl}methyl)piperazin-1-yl]methanone], for which the 50% inhibitory concentration (IC50) came out at 0.005 µM.

Regarding `COc1c(-c2ccc3nc(Nc4cc(CN5CCN(C(=O)C6(C(F)(F)F)CC6)CC5)ccn4)[nH]c3c2)ncnc1N(C)CC1CC1` [Example 110.03, [4-({2-[(6-{6-[(cyclopropylmethyl)(methyl)amino]-5-methoxypyrimidin-4-yl}-1H-benzimidazol-2-yl)amino]pyridin-4-yl}methyl)piperazin-1-yl][1-(trifluoromethyl)cyclopropyl]methanone], the IC50 was 0.052 µM.

For `O=C(CC(F)(F)F)N1CCN(Cc2ccnc(Nc3nc4ccc(-c5ccnc(N6CCCC6)n5)cc4[nH]3)c2)CC1` [Example 177.02, 3,3,3-trifluoro-1-(4-{[2-({6-[2-(pyrrolidin-1-yl)pyrimidin-4-yl]-1H-benzimidazol-2-yl}amino)pyridin-4-yl]methyl}piperazin-1-yl)propan-1-one], the half-maximal inhibitory concentration (IC50) came to 0.0745 µM.

`O=C(C1CC1)N1CCN(Cc2ccnc(Nc3nc4ccc(-c5cnn(CC(F)(F)F)c5)cc4[nH]3)c2)CC1` [Example 58.01.03, cyclopropyl(4-{[2-({6-[1-(2,2,2-trifluoroethyl)-1H-pyrazol-4-yl]-1H-benzimidazol-2-yl}amino)pyridin-4-yl]methyl}piperazin-1-yl)methanone]: the 50% inhibitory concentration (IC50) amounted to 0.00644 µM.

Take `C=CCC(=O)N1CCN(Cc2ccnc(Nc3nc4ccc(-c5nc(C6CC6)no5)cc4[nH]3)c2)CC1` [Example 17.04, 1-{4-[(2-{[6-(3-cyclopropyl-1,2,4-oxadiazol-5-yl)-1H-benzimidazol-2-yl]amino}pyridin-4-yl)methyl]piperazin-1-yl}but-3-en-1-one]: the IC50 amounted to 0.102 µM.

Take `O=C(CC(F)(F)F)N1CCN(Cc2ccnc(Nc3nc4ccc(-c5ccn(CC6CC6)c(=O)c5)cc4[nH]3)c2)CC1` [Example 44.01, 1-(cyclopropylmethyl)-4-{2-[(4-{[4-(3,3,3-trifluoropropanoyl)piperazin-1-yl]methyl}pyridin-2-yl)amino]-1H-benzimidazol-6-yl}pyridin-2(1H)-one]: the concentration for half-maximal inhibition (IC50) was determined as 0.094 µM.

Turning to `CN(C)c1ncnc(-c2ccc3nc(Nc4cc(CN5CCN(C(=O)CC(F)(F)F)CC5)ccn4)[nH]c3c2)c1Cl` [Example 179.02, 1-(4-{[2-({6-[5-chloro-6-(dimethylamino)pyrimidin-4-yl]-1H-benzimidazol-2-yl}amino)pyridin-4-yl]methyl}piperazin-1-yl)-3,3,3-trifluoropropan-1-one], the IC50 came out at 1.14 µM.

In the case of `COc1cncnc1-c1ccc2nc(Nc3cc(C(C)N4CCN(C(=O)C5CCC5)CC4)ccn3)[nH]c2c1` (single isomer, unassigned) [Example 35.03.04.A, cyclobutyl{4-[(1R or 1S)-1-(2-{[6-(5-methoxypyrimidin-4-yl)-1H-benzimidazol-2-yl]amino}pyridin-4-yl)ethyl]piperazin-1-yl}methanone], the IC50 was determined as 0.00838 µM.

Consider `CC(c1ccnc(Nc2nc3ccc(-c4cnn(CC5CC5(C)C)c4)cc3[nH]2)c1)N1CCN(C(=O)C2CC2)CC1` (single isomer, unassigned) [Example 67.03, cyclopropyl{4-[(1R or 1S)-1-(2-{[6-(1-{[(1RS)-2,2-dimethylcyclopropyl]methyl}-1H-pyrazol-4-yl)-1H-benzimidazol-2-yl]amino}pyridin-4-yl)ethyl]piperazin-1-yl}methanone], for which the half-maximal inhibitory concentration (IC50) amounted to 0.002 µM.

Take `O=C(C1CC1)N1CCN(Cc2cc(Nc3nc4ccc(-c5ccncn5)cc4[nH]3)nc(C(F)(F)F)c2)CC1` [Example 23.03.01, cyclopropyl(4-{[2-{[6-(pyrimidin-4-yl)-1H-benzimidazol-2-yl]amino}-6-(trifluoromethyl)pyridin-4-yl]methyl}piperazin-1-yl)methanone]: the IC50 was determined as 0.161 µM.

Consider `O=C(C1CC1)N1CCN(Cc2ccnc(Nc3nc4ccc(-c5cc(NC6CCC6)ncn5)cc4[nH]3)c2)CC1` [Example 152.03, (4-{[2-({6-[6-(cyclobutylamino)pyrimidin-4-yl]-1H-benzimidazol-2-yl}amino)pyridin-4-yl]methyl}piperazin-1-yl)(cyclopropyl)methanone], for which the 50% inhibitory concentration (IC50) was found to be 0.00096 µM.

On to `Cc1cc(-c2ccc3nc(Nc4cc(CN5CCN(C(=O)CC6CC6)CC5)ccn4)[nH]c3c2)ccn1` [Example 01.04, 2-cyclopropyl-1-{4-[(2-{[6-(2-methylpyridin-4-yl)-1H-benzimidazol-2-yl]amino}pyridin-4-yl)methyl]piperazin-1-yl}ethanone], for which the IC50 is 0.0555 µM.

As for `Cc1cncnc1-c1ccc2nc(Nc3cc(CN4CCN(C(=O)CC(F)(F)F)CC4)ccn3)[nH]c2c1` [Example 184.02, 3,3,3-trifluoro-1-{4-[(2-{[6-(5-methylpyrimidin-4-yl)-1H-benzimidazol-2-yl]amino}pyridin-4-yl)methyl]piperazin-1-yl}propan-1-one], the half-maximal inhibitory concentration (IC50) is 0.201 µM.

With `O=C(CC(F)(F)F)N1CCN(Cc2ccnc(Nc3nc4ccc(-c5ccncc5OCC(F)(F)F)cc4[nH]3)c2)CC1` [Example 05.01, 3,3,3-trifluoro-1-(4-{[2-({6-[3-(2,2,2-trifluoroethoxy)pyridin-4-yl]-1H-benzimidazol-2-yl}amino)pyridin-4-yl]methyl}piperazin-1-yl)propan-1-one], the IC50 was 0.0522 µM.

With `Cc1cncnc1-c1ccc2nc(Nc3cc(CN4CCN(C(=O)C5CC5)CC4)ccn3)[nH]c2c1` [Example 184.03, cyclopropyl{4-[(2-{[6-(5-methylpyrimidin-4-yl)-1H-benzimidazol-2-yl]amino}pyridin-4-yl)methyl]piperazin-1-yl}methanone], the IC50 was determined as 0.216 µM.

With `CCN(C)c1cc(-c2ccc3nc(Nc4cc(CN5CCN(C(=O)OC(C)(C)C)CC5)ccn4)[nH]c3c2)ncn1` [Example 148.01, tert-butyl 4-({2-[(6-{6-[ethyl(methyl)amino]pyrimidin-4-yl}-1H-benzimidazol-2-yl)amino]pyridin-4-yl}methyl)piperazine-1-carboxylate], the half-inhibitory concentration (IC50) was found to be 0.025 µM.
